The source of these data is US12157746B2, “Tetrahydro-1H-pyrazino[2,1-a]isoindolylquinoline compounds for the treatment of autoimmune disease” (F. HOFFMANN-LA ROCHE AG, priority 2018, dated 2024).

Molecules are shown by their SMILES. Converted amounts (≈) assume the structure as drawn.

One series concerns the target T1, hERG K+ channel (Homo sapiens, UniProt Q12809).
T1 construct: expressed in transfected cells; host or cells: CHO (Chinese hamster ovary) cells, CHOhERG
The series can be described thus: hERG channel inhibition assay. The series is classed as cell-based. The following applies: patch-clamp (voltage-clamp, whole-cell); for IC50: CHO cells expressing hERG; for IC20: human, CHO cells stably expressing hERG. As to the method:
hERG Channel Inhibition Assay
The hERG K^+ channels were cloned in humans and stably expressed in a CHO (Chinese hamster ovary) cell line. CHOhERG cells were used for patch-clamp (voltage-clamp, whole-cell) experiments. Cells were stimulated by a voltage pattern to activate hERG channels and conduct IKhERG currents (rapid delayed outward rectifier potassium current of the hERG channel). After the cells were stabilized for a few minutes, the amplitude and kinetics of IKhERG were recorded at a stimulation frequency of 0.1 Hz (6 bpm). Thereafter, the test compound was added to the preparation at increasing concentrations. For each concentration, an attempt was made to reach a steady-state effect, usually, this was achieved within 3-10 min at which time the next highest concentration was applied. The amplitude and kinetics of IKhERG are recorded in each concentration of the drug which were compared to the control values (taken as 100%). (references: Redfem W S, Carlsson L, Davis A S, Lynch W G, MacKenzie I, Palethorpe S, Siegl P K, Strang I, Sullivan A T, Wallis R, Camm A J, Hammond T G. 2003; Relationships between preclinical cardiac electrophysiology, clinical QT interval prolongation and torsade de pointes for a broad range of drugs: evidence for a provisional safety margin in drug development. Cardiovasc. Res. 58:32-45, Sanguinetti M C, Tristani-Firouzi M. 2006; hERG potassium channels and cardiac arrhythmia. Nature 440:463-469, Webster R, Leishman D, Walker D. 2002; Towards a drug concentration effect relationship for QT prolongation and torsades de pointes. Curr. Opin. Drug Discov. Devel. 5:116-26).

For series [1], the system named is Balb/c 3T3 mouse fibroblasts. The series can be described thus: 3T3 in vitro phototoxicity assay. The format is cell-based. The following applies: Neutral Red uptake. An excerpt: 3T3 In Vitro Phototoxicity Assay
Phototoxicity is defined as a toxic response that is elicited after the first exposure of the skin to certain chemicals and subsequent exposure to light, or that is induced similarly by skin irradiation after systemic administration of a chemical substance. The assay used in this study is designed to detect the phototoxic potential of a chemical by using a simple in vitro cytotoxicity assay with Balb/c 3T3 mouse fibroblasts. The principle of this test is a comparison of the cytotoxicity of a chemical when tested with and without exposure to a non-toxic dose of UVA-light. Cytotoxicity is expressed as a dose dependent reduction of the growth rate of cells as determined by uptake of the vital dye Neutral Red one day after treatment.
A small amount of substance was weighed and formulated freshly in DMSO just before the start of the exposure of the cells. This stock solution or appropriate dilutions with DMSO were added to the cell suspensions to obtain the required final concentrations. All solutions were generally prepared in Eppendorf caps and discarded after use.
For this study the Neutral Red uptake (NRU) assay of Borenfreund and Puemer (Borenfreund, E, Puemer J A. Toxicity determined in vitro by morphological alterations and Neutral Red absorption. Toxicology Lett. 1985; 24:119-124) modified according to INVITTOX protocol No 78 (ERGATT/FRAME data bank of in vitro techniques in toxicology. INVITTOX PROTOCOL No 78. 3T3 NRU Phototoxicity Assay. March 1994) has been adapted to examine a possible phototoxic potential of the test item. This assay is based on the active uptake of the Neutral Red dye into the lysosomes of cultured murine fibroblasts. Because lysosomal membranes are known to be a site of action of many phototoxic compounds, this assay can provide a measure of potential for phototoxic injury.
A murine fibroblasts clone A 31 (ATCC no. CCL 163—passage No. 108) were cultured in 175 cm2 tissue culture grade flasks, containing sDMEM (Dulbecco's Minimal Essential Medium, supplemented with 10% fetal calf serum, 2 mM L-glutamine, 100 units/ml Penicillin and 100 μg/ml streptomycin) at 37° C. in a humidified atmosphere of 6% C02. Before cells approach confluence they were removed from flasks by trypsinisation. Prior to use in an assay, the cells were transferred to 96-well microtiter plates at a concentration of 1×10^4 cells/well in 100 μl volumes of sDMEM and allowed to attach for 24 h.
For incubation with murine fibroblasts, the test item was diluted in PBS/3% DMSO (detailed concentrations see in results).
Culture medium (Dulbecco's Modified Eagle Medium (DMEM), GlutaMAX (Gibco Ref 21885-025), 10% Fetal Bovine Serum (FBS) (Gibco Ref 10270-106), 100 IU/ml Penicillin and 100 μg/ml Streptomycin (Gibco Ref 15140-122)) was removed from the wells and murine fibroblasts were washed with PBS. Afterwards 100 μL of PBS/3% DMSO containing the test item was added and target cells were incubated for 1 h at 37° C. with 6% CO2.
For each test item the microtiter plates were prepared according to Table 4. “UVA plates” were exposed to approx. 5 J/cm2 UVA light, the “Dark plates” were kept in the dark and served as cytotoxicity control. Plates with chlorpromazine hydrochloride served as positive control. UV flux was measured with a UV-meter (Dr. Gröbel RM21).
Following UV irradiation, the test item was removed from the wells (one washing step with PBS) and replaced with sDMEM. Target cells were then incubated overnight at 37° C. in 6% CO2.
Each plate contained wells with cells and solvent but without test item which were either not incubated with Neutral Red solution (0% standard—S1) or were stained with Neutral Red (100% standard—S2) for calculation of the standard cell viability curve. Wells labeled with U01-U08 contained the different test item concentrations.
After the incubation the wells to be assayed were filled with 100 μL of the sDMEM containing Neutral Red. […]

T1 sequence (Q12809 whole entry): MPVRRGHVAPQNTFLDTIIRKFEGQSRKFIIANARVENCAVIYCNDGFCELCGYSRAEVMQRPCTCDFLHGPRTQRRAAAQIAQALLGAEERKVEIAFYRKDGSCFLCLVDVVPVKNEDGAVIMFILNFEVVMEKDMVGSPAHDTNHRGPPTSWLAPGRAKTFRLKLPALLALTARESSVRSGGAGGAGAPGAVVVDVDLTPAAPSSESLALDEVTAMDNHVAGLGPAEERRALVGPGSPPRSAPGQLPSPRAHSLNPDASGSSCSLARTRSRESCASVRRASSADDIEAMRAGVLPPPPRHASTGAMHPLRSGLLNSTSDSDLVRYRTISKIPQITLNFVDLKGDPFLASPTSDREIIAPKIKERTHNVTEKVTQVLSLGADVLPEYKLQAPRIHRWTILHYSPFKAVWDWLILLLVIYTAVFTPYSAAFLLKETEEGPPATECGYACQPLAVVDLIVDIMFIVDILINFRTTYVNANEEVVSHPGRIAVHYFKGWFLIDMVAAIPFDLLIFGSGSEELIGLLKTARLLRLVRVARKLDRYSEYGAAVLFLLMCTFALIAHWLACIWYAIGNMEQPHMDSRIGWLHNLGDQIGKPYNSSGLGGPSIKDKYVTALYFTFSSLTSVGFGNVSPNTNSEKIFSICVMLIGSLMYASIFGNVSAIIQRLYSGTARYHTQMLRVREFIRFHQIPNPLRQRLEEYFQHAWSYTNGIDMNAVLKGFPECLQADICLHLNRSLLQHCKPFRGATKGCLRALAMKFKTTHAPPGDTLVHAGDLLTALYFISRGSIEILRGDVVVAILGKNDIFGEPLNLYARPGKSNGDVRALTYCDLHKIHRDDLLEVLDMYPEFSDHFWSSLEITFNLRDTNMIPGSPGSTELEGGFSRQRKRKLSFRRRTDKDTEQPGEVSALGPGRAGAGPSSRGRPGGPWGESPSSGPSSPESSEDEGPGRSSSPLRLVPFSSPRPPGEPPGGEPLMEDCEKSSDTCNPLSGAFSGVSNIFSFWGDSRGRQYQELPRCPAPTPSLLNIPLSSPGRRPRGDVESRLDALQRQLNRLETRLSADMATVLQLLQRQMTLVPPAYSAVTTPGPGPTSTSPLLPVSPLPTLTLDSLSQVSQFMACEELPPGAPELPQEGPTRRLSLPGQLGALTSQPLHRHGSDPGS

The IC50 is the concentration needed to halve the response being measured. Lower therefore signals higher potency. In general, IC20 refers to the concentration at which the effect reaches the 20% level. On hERG K+ channel, `C[C@@H]1CN(c2ccc(C#N)c3ncccc23)C[C@@H]2c3ccc(NCCN4CC[C@H](O)C4)cc3CN12` [Example 68, 5-[(4R,10bS)-8-[2-[(3S)-3-hydroxypyrrolidin-1-yl]ethylamino]-4-methyl-3,4,6,10b-tetrahydro-1H-pyrazino[2,1-a]isoindol-2-yl]quinoline-8-carbonitrile] returned an IC50 of over 20 µM and an IC20 of 5.6 µM.

Turning to `C[C@@H]1CN(c2ccc(C#N)c3ncccc23)C[C@@H]2c3ccc(N4C[C@H]5CNCCN5C4=O)cc3CN12` [Example 72, 5-[(4R,10bS)-8-[(8aR)-3-oxo-1,5,6,7,8,8a-hexahydroimidazo[1,5-a]pyrazin-2-yl]-4-methyl-3,4,6,10b-tetrahydro-1H-pyrazino[2,1-a]isoindol-2-yl]quinoline-8-carbonitrile], on hERG K+ channel, the IC50 was over 20 µM and the IC20 is over 10 µM.

On to `C[C@@H]1CN(c2ccc(C#N)c3ncccc23)C[C@@H]2c3ccc(NCC4COCCN4)cc3CN12` (stereo partly drawn) [Example 57, 5-[(4R,10bS)-4-methyl-8-(morpholin-3-ylmethylamino)-3,4,6,10b-tetrahydro-1H-pyrazino[2,1-a]isoindol-2-yl]quinoline-8-carbonitrile], for which, on hERG K+ channel, the IC50 was over 20 µM and the IC20 was over 10 µM.

In the case of `C[C@@H]1CN(c2ccc(C#N)c3ncccc23)C[C@@H]2c3ccc(NC[C@H]4CNCCO4)cc3CN12` [Example 59, 5-[(4R,10bS)-4-methyl-8-[[(2R)-morpholin-2-yl]methylamino]-3,4,6,10b-tetrahydro-1H-pyrazino[2,1-a]isoindol-2-yl]quinoline-8-carbonitrile], on hERG K+ channel, the IC50 is over 20 µM and the IC20 is over 10 µM.

On to `CO[C@H]1CNC[C@@H]1N(C)c1ccc2c(c1)CN1[C@H](C)CN(c3ccc(C#N)c4ncccc34)C[C@H]21` [Example 64, 5-[(4R,10bS)-8-[[(3S,4S)-4-methoxypyrrolidin-3-yl]-methyl-amino]-4-methyl-3,4,6,10b-tetrahydro-1H-pyrazino[2,1-a]isoindol-2-yl]quinoline-8-carbonitrile], for which, at hERG K+ channel, the IC50 is over 20 µM and the 20% effect level (IC20) was put at 8.5 µM.

In the case of `CO[C@@H]1CNC[C@@H]1Nc1ccc2c(c1)CN1[C@H](C)CN(c3ccc(C#N)c4ncccc34)C[C@H]21` [Example 60, 5-[(4R,10bS)-8-[[(3S,4R)-4-methoxypyrrolidin-3-yl]amino]-4-methyl-3,4,6,10b-tetrahydro-1H-pyrazino[2,1-a]isoindol-2-yl]quinoline-8-carbonitrile], at hERG K+ channel, the IC50 was over 20 µM and the IC20 is over 10 µM.

In the case of `C[C@H]1CN(c2ccc(C#N)c3ncccc23)C[C@H]2c3ccc(N4CCNCC4)cc3CN12` [Example 2, 5-[(4S,10bR)-4-methyl-8-piperazin-1-yl-3,4,6,10b-tetrahydro-1H-pyrazino[2,1-a]isoindol-2-yl]quinoline-8-carbonitrile], on hERG K+ channel, the IC50 was over 20 µM and the 20% effect concentration (IC20) was over 10 µM.

In series [1] (Factor=IC50(−UV)/IC50(+UV), cut-off factor >5), `[2H]c1ccc2c(N3C[C@@H](C)N4Cc5cc(N6CC7(CNCCO7)C6)ccc5[C@H]4C3)ccc(C#N)c2n1` [Example 90, 5-[(4R,10bS)-4-methyl-8-(5-oxa-2,8-diazaspiro[3.5]nonan-2-yl)-3,4,6,10b-tetrahydro-1H-pyrazino[2,1-a]isoindol-2-yl]-2-deuterio-quinoline-8-carbonitrile] came in with a Phototoxicity factor of over 2. In series [1] (Mus musculus, BALB/c3T3, light or radiation study, with approx. 5 J/cm2 UVA light), this compound came in with a half-inhibitory concentration (IC50) of 50.6 µg/mL (≈ 108 µM).
